IC50 data for 20 compounds are collected here from patent publication US10479780B2, “Aminopyrazole derivatives” (Chugai Seiyaku Kabushiki Kaisha, priority 2015, dated 2019).

SMILES strings stand for the structures.

Assay type in all cases: biochemical
The target of one assay is T1, human Src enzyme (Homo sapiens, UniProt P12931).
T1 construct: purchased Carna Biosciences, Inc. 08-173
In words: Src enzyme inhibitory activity (time-resolved fluorometry, biotinylated peptide phosphorylation). To be noted: biotinylated peptide phosphorylation, read-out: SRC_IC50. How it is done: (§1) 2. Src Enzyme Inhibitory Activity Src inhibitory activity was determined based on activity of inhibiting phosphorylation reaction of a biotinylated peptide (EGPWLEEEEEAYGWMDF) using a human Src enzyme (manufactured by Carna Biosciences, Inc., cat 08-173). The phosphorylated biotinylated peptide was detected by time-resolved fluorometry using an anti-phosphorylated tyrosine antibody conjugated to europium cryptate, and streptavidin conjugated to XL665, an allophycocyanin derivative. The 50% inhibitory concentration (IC50) was calculated from the inhibition rate relative to the control group without containing the test substance.

In a further assay the target is T2, human Lck enzyme (Homo sapiens, UniProt P06239).
T2 construct: purchased Carna Biosciences, Inc. 08-170
T2 sequence (P06239 whole entry): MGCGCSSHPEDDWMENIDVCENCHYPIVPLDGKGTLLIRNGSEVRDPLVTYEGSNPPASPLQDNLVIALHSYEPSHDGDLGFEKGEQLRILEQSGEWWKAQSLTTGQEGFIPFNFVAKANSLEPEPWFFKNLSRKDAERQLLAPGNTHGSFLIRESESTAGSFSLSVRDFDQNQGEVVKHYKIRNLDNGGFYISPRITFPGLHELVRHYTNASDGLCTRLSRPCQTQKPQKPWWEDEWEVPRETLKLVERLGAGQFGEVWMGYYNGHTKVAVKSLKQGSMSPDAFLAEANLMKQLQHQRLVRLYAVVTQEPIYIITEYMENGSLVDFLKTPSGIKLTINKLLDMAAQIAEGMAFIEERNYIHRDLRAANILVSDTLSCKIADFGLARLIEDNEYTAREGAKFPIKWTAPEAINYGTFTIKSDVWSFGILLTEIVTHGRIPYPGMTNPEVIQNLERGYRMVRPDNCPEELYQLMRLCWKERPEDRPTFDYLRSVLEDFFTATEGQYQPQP
The experiment in a line: Lck enzyme inhibitory activity (time-resolved fluorometry, biotinylated peptide phosphorylation). The following applies: biotinylated peptide phosphorylation, read-out: LCK_IC50. How it is done:
as §1, with “3. Lck” for “2. Src”, “Lck” for “Src”, “08-170).” for “08-173).”

In another assay the target is T3, human Yes1 enzyme (Homo sapiens, UniProt P07947).
T3 construct: made in house
T3 sequence (P07947 whole entry): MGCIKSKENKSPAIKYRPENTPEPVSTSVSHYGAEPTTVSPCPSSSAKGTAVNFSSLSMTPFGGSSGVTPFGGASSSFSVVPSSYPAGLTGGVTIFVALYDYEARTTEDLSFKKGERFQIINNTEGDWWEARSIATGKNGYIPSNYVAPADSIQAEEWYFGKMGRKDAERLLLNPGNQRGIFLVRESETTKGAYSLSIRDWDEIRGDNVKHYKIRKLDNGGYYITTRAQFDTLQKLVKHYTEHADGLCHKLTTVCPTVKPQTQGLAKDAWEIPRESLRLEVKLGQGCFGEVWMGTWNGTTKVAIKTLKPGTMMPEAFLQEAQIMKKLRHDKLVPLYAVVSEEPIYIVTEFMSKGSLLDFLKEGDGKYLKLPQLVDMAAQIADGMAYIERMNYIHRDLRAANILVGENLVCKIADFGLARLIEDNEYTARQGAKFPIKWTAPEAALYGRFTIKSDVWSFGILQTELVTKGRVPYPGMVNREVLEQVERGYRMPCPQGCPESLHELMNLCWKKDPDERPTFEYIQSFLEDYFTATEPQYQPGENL
The experiment in a line: Yes1 enzyme inhibitory activity (time-resolved fluorometry, biotinylated peptide phosphorylation). To be noted: biotinylated peptide phosphorylation, read-out: YES_IC50. As to the method:
as §1, with “1. Yes1” for “2. Src”, “Yes1” for “Src”, “prepared using a baculovirus expression system.” for “(manufactured by Carna Biosciences, Inc., cat 08-173).”

T1 sequence (P12931 whole entry): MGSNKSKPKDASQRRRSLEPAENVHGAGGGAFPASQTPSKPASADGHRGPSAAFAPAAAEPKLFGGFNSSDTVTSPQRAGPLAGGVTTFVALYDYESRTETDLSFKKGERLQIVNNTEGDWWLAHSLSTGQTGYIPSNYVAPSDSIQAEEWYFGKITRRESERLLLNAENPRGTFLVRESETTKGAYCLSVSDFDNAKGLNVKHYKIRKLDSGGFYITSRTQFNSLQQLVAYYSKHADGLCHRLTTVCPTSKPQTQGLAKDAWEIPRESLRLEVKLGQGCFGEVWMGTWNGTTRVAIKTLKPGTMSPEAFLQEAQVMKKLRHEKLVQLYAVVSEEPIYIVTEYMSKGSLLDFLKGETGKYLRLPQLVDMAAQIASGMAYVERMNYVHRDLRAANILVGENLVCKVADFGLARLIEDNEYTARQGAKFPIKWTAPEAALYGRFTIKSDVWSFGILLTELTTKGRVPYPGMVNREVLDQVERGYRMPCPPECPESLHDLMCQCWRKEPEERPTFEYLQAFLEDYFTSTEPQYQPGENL

With `Cc1cc2cc(C(=O)c3cnn(-c4cnc(Oc5c(F)cccc5F)cc4C)c3N)[nH]c2cc1NS(C)(=O)=O` [Example 4-1-001, N-{2-{5-amino-1-[6-(2,6-difluorophenoxy)-4-methylpyridin-3-yl]pyrazole-4-carbonyl}-5-methyl-1H-indol-6-yl}methanesulfonamide], the values for the IC50 on human Src enzyme, at human Lck enzyme and at human Yes1 enzyme were 45 nM, 8.2 nM and 1.2 nM, respectively.

With `Cc1cc(Oc2ccccc2F)ccc1-n1ncc(C(=O)c2cc3cc(F)c(NS(C)(=O)=O)cc3[nH]2)c1N` [Example 4-1-002, N-[2-[5-amino-1-[4-(2-fluorophenoxy)-2-methylphenyl]pyrazole-4-carbonyl]-5-fluoro-1H-indol-6-yl]methanesulfonamide], the IC50 at human Src enzyme is 21 nM; on human Lck enzyme it was 7.6 nM; on human Yes1 enzyme, 0.52 nM.

Take `CS(=O)(=O)Nc1cc2[nH]c(C(=O)c3cnn(-c4ccc(Oc5ccccn5)cc4Cl)c3N)cc2cc1F` [Example 4-1-003, N-[2-[5-amino-1-(2-chloro-4-pyridin-2-yloxyphenyl)pyrazole-4-carbonyl]-5-fluoro-1H-indol-6-yl]methanesulfonamide]: the IC50 worked out at 55 nM on human Src enzyme, 14 nM at human Lck enzyme and 1.2 nM on human Yes1 enzyme.

On to `COc1cc2cc(C(=O)c3cnn(-c4ccc(Oc5ccccc5F)cc4C)c3N)[nH]c2cc1NS(C)(=O)=O` [Example 4-1-004, N-[2-[5-Amino-1-[4-(2-fluorophenoxy)-2-methylphenyl]pyrazole-4-carbonyl]-5-methoxy-1H-indol-6-yl]methanesulfonamide], for which the IC50 at human Src enzyme was 21 nM; on human Lck enzyme, 3.4 nM; at human Yes1 enzyme it was 0.52 nM.

Regarding `COc1cc2cc(C(=O)c3cnn(-c4ccc(Oc5cccc(F)c5F)cc4C)c3N)[nH]c2cc1NS(C)(=O)=O` [Example 4-1-005, N-[2-[5-amino-1-[4-(2,3-difluorophenoxy)-2-methylphenyl]pyrazole-4-carbonyl]-5-methoxy-1H-indol-6-yl]methanesulfonamide], the IC50 on human Src enzyme was 63 nM; on human Lck enzyme, 7.8 nM; at human Yes1 enzyme, 1 nM.

As for `COc1cc2cc(C(=O)c3cnn(-c4c(C)cc(Oc5ccccc5F)cc4F)c3N)[nH]c2cc1NS(C)(=O)=O` [Example 4-1-006, N-[2-[5-amino-1-[2-fluoro-4-(2-fluorophenoxy)-6-methylphenyl]pyrazole-4-carbonyl]-5-methoxy-1H-indol-6-yl]methanesulfonamide], the IC50 at human Src enzyme was determined as 74 nM; on human Lck enzyme it was 11 nM; on human Yes1 enzyme it was 1.8 nM.

Turning to `COc1cc2cc(C(=O)c3cnn(-c4c(C)cc(Oc5ccccc5)cc4F)c3N)[nH]c2cc1NS(C)(=O)=O` [Example 4-1-007, N-[2-[5-amino-1-(2-fluoro-6-methyl-4-phenoxyphenyl)pyrazole-4-carbonyl]-5-methoxy-1H-indol-6-yl]methanesulfonamide], the IC50 on human Src enzyme amounted to 61 nM; at human Lck enzyme, 7.5 nM; at human Yes1 enzyme, 1.1 nM.

Regarding `COc1cc2cc(C(=O)c3cnn(-c4cnc(Oc5ccccc5F)cc4C)c3N)[nH]c2cc1NS(C)(=O)=O` [Example 4-1-008, N-[2-[5-amino-1-[6-(2-fluorophenoxy)-4-methylpyridin-3-yl]pyrazole-4-carbonyl]-5-methoxy-1H-indol-6-yl]methanesulfonamide], the IC50 on human Src enzyme amounted to 52 nM; at human Lck enzyme it was 4 nM; at human Yes1 enzyme, 0.69 nM.

In the case of `COc1cc2cc(C(=O)c3cnn(-c4cnc(Oc5c(F)cccc5F)cc4C)c3N)[nH]c2cc1NS(C)(=O)=O` [Example 4-1-009, N-[2-[5-amino-1-[6-(2,6-difluorophenoxy)-4-methylpyridin-3-yl]pyrazole-4-carbonyl]-5-methoxy-1H-indol-6-yl]methanesulfonamide], the IC50 worked out at 59 nM at human Src enzyme, 4.5 nM on human Lck enzyme and 1.1 nM on human Yes1 enzyme.

With `COc1cc2cc(C(=O)c3cnn(-c4cnc(Oc5ccccc5Cl)cc4C)c3N)[nH]c2cc1NS(C)(=O)=O` [Example 4-1-010, N-[2-[5-amino-1-[6-(2-chlorophenoxy)-4-methylpyridin-3-yl]pyrazole-4-carbonyl]-5-methoxy-1H-indol-6-yl]methanesulfonamide], the IC50 at human Src enzyme is 46 nM; at human Lck enzyme, 25 nM; at human Yes1 enzyme, 1.1 nM.

For the compound `COc1cc2cc(C(=O)c3cnn(-c4cnc(Oc5cccc(Cl)c5)cc4C)c3N)[nH]c2cc1NS(C)(=O)=O` [Example 4-1-011, N-[2-[5-amino-1-[6-(3-chlorophenoxy)-4-methylpyridin-3-yl]pyrazole-4-carbonyl]-5-methoxy-1H-indol-6-yl]methanesulfonamide], the IC50 on human Src enzyme came to 170 nM; on human Lck enzyme, 41 nM; at human Yes1 enzyme, 5.5 nM.

Take `Cc1cc(Oc2c(F)cccc2F)ncc1-n1ncc(C(=O)c2cc3cc(OC(F)F)c(C4CCN(C(=O)OC(C)(C)C)CC4)cc3[nH]2)c1N` [Example 4-1-012, tert-butyl 4-[2-[5-amino-1-[6-(2,6-difluorophenoxy)-4-methylpyridin-3-yl]pyrazole-4-carbonyl]-5-(difluoromethoxy)-1H-indol-6-yl]piperidine-1-carboxylate]: the IC50 at human Src enzyme worked out at 90 nM; on human Lck enzyme it was 39 nM; on human Yes1 enzyme, 34 nM.

Take `COc1cc2[nH]c(C(=O)c3cnn(-c4ccc(Oc5ccccc5F)cc4C)c3N)cc2cc1NS(C)(=O)=O` [Example 4-1-013, N-[2-[5-amino-1-[4-(2-fluorophenoxy)-2-methylphenyl]pyrazole-4-carbonyl]-6-methoxy-1H-indol-5-yl]methanesulfonamide]: the IC50 is 2.6 nM on human Src enzyme, 1.3 nM at human Lck enzyme and 0.45 nM on human Yes1 enzyme.

In the case of `COc1cc2[nH]c(C(=O)c3cnn(-c4cnc(Oc5ccccc5F)cc4C)c3N)cc2cc1NS(C)(=O)=O` [Example 4-1-014, N-[2-[5-amino-1-[6-(2-fluorophenoxy)-4-methylpyridin-3-yl]pyrazole-4-carbonyl]-6-methoxy-1H-indol-5-yl]methanesulfonamide], the IC50 on human Src enzyme is 5.8 nM; on human Lck enzyme it was 1.4 nM; on human Yes1 enzyme it was 0.36 nM.

On to `Cc1cc(Oc2ccccc2F)ccc1-n1ncc(C(=O)c2cc3cc(OCC(F)F)c(N4CCOCC4)cc3[nH]2)c1N` [Example 4-1-015, [5-amino-1-[4-(2-fluorophenoxy)-2-methylphenyl]pyrazol-4-yl]-[5-(2,2-difluoroethoxy)-6-morpholin-4-yl-1H-indol-2-yl]methanone], for which the IC50 was 14 nM on human Src enzyme, 10 nM on human Lck enzyme and 1 nM on human Yes1 enzyme.

Consider `Cc1cc(Oc2c(F)cccc2F)ncc1-n1ncc(C(=O)c2cc3cc(OCC(F)F)c(N4CCOCC4)cc3[nH]2)c1N` [Example 4-1-016, [5-amino-1-[6-(2,6-difluorophenoxy)-4-methylpyridin-3-yl]pyrazol-4-yl]-[5-(2,2-difluoroethoxy)-6-morpholin-4-yl-1H-indol-2-yl]methanone], for which the IC50 is 14 nM on human Src enzyme, 7.5 nM at human Lck enzyme and 2.1 nM at human Yes1 enzyme.

Take `Cc1cc2cc(C(=O)c3cnn(-c4cnc(Oc5c(F)cccc5F)cc4C)c3N)[nH]c2cc1NS(=O)(=O)C1CC1` [Example 4-1-017, N-[2-[5-amino-1-[6-(2,6-difluorophenoxy)-4-methylpyridin-3-yl]pyrazole-4-carbonyl]-5-methyl-1H-indol-6-yl]cyclopropanesulfonamide]: the IC50 at human Src enzyme was 100 nM; at human Lck enzyme it was 4.9 nM; at human Yes1 enzyme, 3.1 nM.

For `Cc1cc(Oc2ccccc2F)ccc1-n1ncc(C(=O)c2cc3cc(C4CCN(C(C)C)CC4)c(F)cc3[nH]2)c1N` [Example 4-2-001, [5-amino-1-[4-(2-fluorophenoxy)-2-methylphenyl]pyrazol-4-yl]-[6-fluoro-5-(1-propan-2-ylpiperidin-4-yl)-1H-indol-2-yl]methanone], the IC50 at human Src enzyme came to 4.1 nM; on human Lck enzyme it was 3.1 nM; at human Yes1 enzyme, 1 nM.

For the compound `Cc1cc(-n2ncc(C(=O)c3cc4cc(C)c(N5C(=O)NC6(CCCC6)C5=O)cc4[nH]3)c2N)ccc1Oc1ccccc1F` [Example 5-1-474, 3-[2-[5-amino-1-[4-(2-fluorophenoxy)-3-methylphenyl]pyrazole-4-carbonyl]-5-methyl-1H-indol-6-yl]-1,3-diazaspiro[4.4]nonane-2,4-dione], the figures for the IC50 on human Lck enzyme and on human Yes1 enzyme were 650 nM and 27 nM, respectively.

Regarding `Cc1cc(-n2ncc(C(=O)c3cc4cc(F)c(NS(=O)(=O)C5CCOCC5)cc4[nH]3)c2N)ccc1Oc1ccccc1F` [Example 5-1-493, N-[2-[5-amino-1-[4-(2-fluorophenoxy)-3-methylphenyl]pyrazole-4-carbonyl]-5-fluoro-1H-indol-6-yl]oxane-4-sulfonamide], the IC50 worked out at 3000 nM at human Lck enzyme and 5.3 nM on human Yes1 enzyme.
